Laboratory results taken from US20110130397A1, “PYRROLINONE COMPOUNDS AS INHIBITORS OF BACTERIAL PEPTIDYL TRNA HYDROLASE AND USES THEREOF” (priority 2006, published 2011).

Assays:
[1] = Cytotoxicity (CellTiter 96 Aqueous Non-Radioactive Cell Proliferation Assay); assay type: cell-based; conditions: human, Huh7 cells
Experimental: Novel antibacterial peptidyl tRNA hydrolase inhibitors were identified using the MIC assay (inhibition ranged from 32-100%). The inhibitors were also bacteria specific, as evidenced by the low cytotoxicity observed for the human Huh7 cells (FIG. 4). Cytotoxicity was determined according to manufacturer's directions (CellTiter 96 Aqueous Non-Radioactive Cell Proliferation Assay, Promega).
Further data for representative compounds is set forth in Table 1 (MIC and cytotoxicity). Compounds were tested against S. aureus (ATCC 29213) and E. coli (BAS849—permeable) in the MIC assays. Certain compounds were also tested against other bacteria, including S. epidermis (ATCC 12228), E. faecium (ATCC 49624), and E. faecalis (ATCC 29212). Cytotoxicity was determined using Hu7 cells and Hep G2 cells. The MIC and cytotoxicity assays were performed as described above.

melting point [°C] | SMILES | CC50 [1] [µM]
– | CCOc1cc(C2C(C(=O)c3cc4ccccc4o3)=C(O)C(=O)N2c2nnc(SCc3cccc4ccccc34)s2)ccc1O (centres unmarked) [Compound 2] | > 79
– | CCOc1cc(C2C(C(=O)c3cc4ccccc4o3)=C(O)C(=O)N2c2nnc(SCc3ccccc3F)s2)ccc1O (centres unmarked) [Compound 3] | > 83
– | CCOc1cc(C2C(C(=O)c3cc4ccccc4o3)=C(O)C(=O)N2c2nc3c(C)cc(C)cc3s2)ccc1O (centres unmarked) [Compound 4] | 53.4
– | CCOc1cc(C2C(C(=O)c3cc4ccccc4o3)=C(O)C(=O)N2c2nnc(SCc3ccccc3)s2)ccc1O (centres unmarked) [Compound 7] | > 85
– | Cc1ccc2nc(N3C(=O)C(O)=C(C(=O)c4cc5ccccc5o4)C3c3cccc(O)c3)sc2c1 (centres unmarked) [Compound 8] | 80.1
– | COc1cc(C2C(C(=O)c3cc4ccccc4o3)=C(O)C(=O)N2c2nnc(C)s2)ccc1OCc1ccccc1 (centres unmarked) [Compound 9] | > 90
– | COc1cc(C2C(C(=O)c3cc4ccccc4o3)=C(O)C(=O)N2c2nc(C)c(C(C)=O)s2)ccc1OCc1ccccc1 (centres unmarked) [Compound 11] | > 84
– | O=C(C1=C(O)C(=O)N(c2nnc(SCc3ccc(Cl)cc3)s2)C1c1cccc(O)c1)c1cc2ccccc2o1 (centres unmarked) [Compound 12] | > 87
193 to 194 | Cc1ccc(C(=O)C2=C(O)C(=O)N(Cc3cccs3)C2c2ccccc2F)o1 (centres unmarked) [Compound 504] | –
225 to 226 | Cc1ccc(C(=O)C2=C(O)C(=O)N(Cc3cccs3)C2c2ccc(F)cc2)o1 (centres unmarked) [Compound 505] | –
231 to 232 | Cc1ccc(C(=O)C2=C(O)C(=O)N(c3ccc4ncsc4c3)C2c2ccccc2F)o1 (centres unmarked) [Compound 564] | –
221 to 222 | Cc1ccc(C(=O)C2=C(O)C(=O)N(c3ccc4ncsc4c3)C2c2ccc(F)cc2)o1 (centres unmarked) [Compound 565] | –
91 to 93 | Cc1ccc(C(=O)C2=C(O)C(=O)N(Cc3nc4ccccc4[nH]3)C2c2ccccc2F)o1 (centres unmarked) [Compound 566] | –
96 to 100 | Cc1ccc(C(=O)C2=C(O)C(=O)N(Cc3nc4ccccc4[nH]3)C2c2ccc(F)cc2)o1 (centres unmarked) [Compound 567] | –
258 to 260 | O=C(O)CCC(=O)C1=C(O)C(=O)N(c2nc3ccc(Cl)cc3s2)C1c1ccccc1F (centres unmarked) [Compound 568] | –
262 to 263 | O=C(O)CCC(=O)C1=C(O)C(=O)N(c2nc3ccc(Cl)cc3s2)C1c1ccc(F)cc1 (centres unmarked) [Compound 569] | –
216 to 218 | O=C(C1=C(O)C(=O)N(c2nc3c(Cl)cccc3s2)C1c1ccc(F)cc1)C1CC2C=CC1C2 (centres unmarked) [Compound 570] | –
262 to 263 | O=C(C1=C(O)C(=O)N(c2nc3ccc(Cl)cc3s2)C1c1ccccc1F)C1CCC1 (centres unmarked) [Compound 571] | –
271 to 273 | O=C(C1=C(O)C(=O)N(c2nc3ccc(Cl)cc3s2)C1c1ccc(F)cc1)C1CCC1 (centres unmarked) [Compound 572] | –
220 to 221 | O=C(C1=C(O)C(=O)N(c2nc3c(Cl)cccc3s2)C1c1ccccc1F)C1CCC1 (centres unmarked) [Compound 573] | –
232 to 233 | O=C(C1=C(O)C(=O)N(c2nc3c(Cl)cccc3s2)C1c1ccc(F)cc1)C1CCC1 (centres unmarked) [Compound 574] | –

melting point [°C] | SMILES | CC50 [1] [µM]
219 to 220 | COCCOc1ccc(CCC(=O)C2=C(O)C(=O)N(c3nc4ccc(Cl)cc4s3)C2c2ccccc2F)cc1 (centres unmarked) [Compound 575] | –
226 to 227 | COCCOc1ccc(CCC(=O)C2=C(O)C(=O)N(c3nc4ccc(Cl)cc4s3)C2c2ccc(F)cc2)cc1 (centres unmarked) [Compound 576] | –
179 to 180 | COCCOc1ccc(CCC(=O)C2=C(O)C(=O)N(c3nc4c(Cl)cccc4s3)C2c2ccccc2F)cc1 (centres unmarked) [Compound 577] | –
182 to 183 | COCCOc1ccc(CCC(=O)C2=C(O)C(=O)N(c3nc4c(Cl)cccc4s3)C2c2ccc(F)cc2)cc1 (centres unmarked) [Compound 578] | –
205 to 206 | O=C(C1=C(O)C(=O)N(c2nc3ccc(Cl)cc3s2)C1c1ccccc1F)C1CC2C=CC1C2 (centres unmarked) [Compound 579] | –
197 to 198 | Cc1ccc(C(=O)C2=C(O)C(=O)N(CCc3c[nH]c4ccccc34)C2c2ccccc2F)o1 (centres unmarked) [Compound 593] | –
157 to 158 | Cc1ccc(C(=O)C2=C(O)C(=O)N(CCc3c[nH]c4ccccc34)C2c2ccc(F)cc2)o1 (centres unmarked) [Compound 594] | –
165 to 166 | Cc1ccc(C(=O)C2=C(O)C(=O)N(CCc3c[nH]c4ccccc34)C2c2ccc(Cl)cc2)o1 (centres unmarked) [Compound 595] | –
236 to 237 | Cc1ccc(C(=O)C2=C(O)C(=O)N(c3nc4ccc(Cl)cc4s3)C2c2ccc3c(c2)OCCO3)o1 (centres unmarked) [Compound 596] | –
236 to 237 | Cc1ccc(C(=O)C2=C(O)C(=O)N(c3nc4ccc(F)cc4s3)C2c2ccc3c(c2)OCCO3)o1 (centres unmarked) [Compound 597] | –
251 to 252 | Cc1ccc(C(=O)C2=C(O)C(=O)N(c3nc4c(Cl)cccc4s3)C2c2ccc3c(c2)OCCO3)o1 (centres unmarked) [Compound 598] | –
255 to 257 | Cc1ccc(C(=O)C2=C(O)C(=O)N(c3nc4ccc(Cl)cc4s3)C2c2ccc3ccccc3c2)o1 (centres unmarked) [Compound 599] | –
254 to 256 | Cc1ccc(C(=O)C2=C(O)C(=O)N(c3nc4ccc(F)cc4s3)C2c2ccc3ccccc3c2)o1 (centres unmarked) [Compound 600] | –
261 to 262 | Cc1ccc(C(=O)C2=C(O)C(=O)N(c3nc4c(Cl)cccc4s3)C2c2ccc3ccccc3c2)o1 (centres unmarked) [Compound 601] | –
229 to 230 | COc1cccc(C2C(C(=O)c3ccc(C)o3)=C(O)C(=O)N2c2nc3ccc(Cl)cc3s2)c1 (centres unmarked) [Compound 602] | –
201 to 202 | COc1cccc(C2C(C(=O)c3ccc(C)o3)=C(O)C(=O)N2c2nc3ccc(F)cc3s2)c1 (centres unmarked) [Compound 603] | –
255 to 256 | COc1cccc(C2C(C(=O)c3ccc(C)o3)=C(O)C(=O)N2c2nc3c(Cl)cccc3s2)c1 (centres unmarked) [Compound 604] | –
229 to 230 | COc1cc(C2C(C(=O)c3ccc(C)o3)=C(O)C(=O)N2c2nc3ccc(Cl)cc3s2)cc(OC)c1OC (centres unmarked) [Compound 605] | –
244 to 245 | COc1cc(C2C(C(=O)c3ccc(C)o3)=C(O)C(=O)N2c2nc3ccc(F)cc3s2)cc(OC)c1OC (centres unmarked) [Compound 606] | –
251 to 252 | COc1cc(C2C(C(=O)c3ccc(C)o3)=C(O)C(=O)N2c2nc3c(Cl)cccc3s2)cc(OC)c1OC (centres unmarked) [Compound 607] | –
235 to 236 | Cc1ccc(C(=O)C2=C(O)C(=O)N(c3nc4ccc(Cl)cc4s3)C2c2ccc(C)o2)o1 (centres unmarked) [Compound 608] | –

melting point [°C] | SMILES | CC50 [1] [µM]
224 to 225 | Cc1ccc(C(=O)C2=C(O)C(=O)N(c3nc4c(Cl)cccc4s3)C2c2ccc(C)o2)o1 (centres unmarked) [Compound 610] | –
207 to 210 | CCN(CC)c1ccc(C2C(C(=O)c3ccc(C)o3)=C(O)C(=O)N2c2nc3ccc(Cl)cc3s2)cc1 (centres unmarked) [Compound 614] | –
209 to 212 | CCN(CC)c1ccc(C2C(C(=O)c3ccc(C)o3)=C(O)C(=O)N2c2nc3ccc(F)cc3s2)cc1 (centres unmarked) [Compound 615] | –
223 to 226 | CCN(CC)c1ccc(C2C(C(=O)c3ccc(C)o3)=C(O)C(=O)N2c2nc3c(Cl)cccc3s2)cc1 (centres unmarked) [Compound 616] | –
260 to 261 | Cc1ccc(C(=O)C2=C(O)C(=O)N(c3nc4ccc(Cl)cc4s3)C2c2cccc3ccccc23)o1 (centres unmarked) [Compound 617] | –
251 to 252 | Cc1ccc(C(=O)C2=C(O)C(=O)N(c3nc4ccc(F)cc4s3)C2c2cccc3ccccc23)o1 (centres unmarked) [Compound 618] | –
249 to 250 | Cc1ccc(C(=O)C2=C(O)C(=O)N(c3nc4c(Cl)cccc4s3)C2c2cccc3ccccc23)o1 (centres unmarked) [Compound 619] | –
259 to 260 | Cc1ccc(C(=O)C2=C(O)C(=O)N(c3nc4ccc(Cl)cc4s3)C2c2ccc(C#N)cc2)o1 (centres unmarked) [Compound 620] | –
255 to 256 | Cc1ccc(C(=O)C2=C(O)C(=O)N(c3nc4ccc(F)cc4s3)C2c2ccc(C#N)cc2)o1 (centres unmarked) [Compound 621] | –
273 to 274 | Cc1ccc(C(=O)C2=C(O)C(=O)N(c3nc4c(Cl)cccc4s3)C2c2ccc(C#N)cc2)o1 (centres unmarked) [Compound 622] | –
253 to 254 | Cc1ccc(C(=O)C2=C(O)C(=O)N(c3nc4ccc(Cl)cc4s3)C2c2cccc(F)c2F)o1 (centres unmarked) [Compound 623] | –
239 to 240 | Cc1ccc(C(=O)C2=C(O)C(=O)N(c3nc4ccc(F)cc4s3)C2c2cccc(F)c2F)o1 (centres unmarked) [Compound 624] | –
274 to 275 | Cc1ccc(C(=O)C2=C(O)C(=O)N(c3nc4c(Cl)cccc4s3)C2c2cccc(F)c2F)o1 (centres unmarked) [Compound 625] | –
254 to 256 | Cc1ccc(C(=O)C2=C(O)C(=O)N(c3nc4ccc(Cl)cc4s3)C2c2ccccc2C)o1 (centres unmarked) [Compound 626] | –
214 to 215 | Cc1ccc(C(=O)C2=C(O)C(=O)N(c3nc4ccc(F)cc4s3)C2c2ccccc2C)o1 (centres unmarked) [Compound 627] | –
244 to 245 | Cc1ccc(C(=O)C2=C(O)C(=O)N(c3nc4c(Cl)cccc4s3)C2c2ccccc2C)o1 (centres unmarked) [Compound 628] | –
268 to 272 | CC(=O)N1CCCC1C(=O)C1=C(O)C(=O)N(c2nc3ccc(Cl)cc3s2)C1c1ccc(F)cc1 (centres unmarked) [Compound 646, 4-(1-Acetylpyrrolidine-2-carbonyl)-1-(6-chlorobenzo[d]thiazol-2-yl)-5-(4-fluorophenyl)-3-hydroxy-1H-pyrrol-2(5H)-one] | –
148 to 152 | CC(=O)NC(CC(C)C)C(=O)C1=C(O)C(=O)N(c2nc3ccc(Cl)cc3s2)C1c1ccc(F)cc1 (centres unmarked) [Compound 647] | –
293 to 297 | CC(=O)N1CCCC1C(=O)C1=C(O)C(=O)N(c2nc3ccc(F)cc3s2)C1c1ccc(Cl)cc1 (centres unmarked) [Compound 648] | –
266 to 269 | CC(=O)NC(CC(C)C)C(=O)C1=C(O)C(=O)N(c2nc3ccc(F)cc3s2)C1c1ccc(Cl)cc1 (centres unmarked) [Compound 649] | –
